{
  "source": "paper PMC8769378",
  "about": "“Underlining the Importance of Peripheral Protic Functional Groups to Enhance the Proton Exchange of Gd-Based MRI Contrast Agents” (Inorganic Chemistry, 2021)",
  "type_in_all_cases": "physicochemical",
  "key": {"[1]": {"assay": "Protonation constants of the Gd^III complexes by pH potentiometry", "conditions": "0.15 M NaCl, 298 K", "text": "(§1) The metal complexes of biomedical interest must show a high in vivo stability, which includes high thermodynamic stability and kinetic inertness to allow targeting applications and to avoid possible toxic effects derived by metal ion and ligand release via transmetalation or transchelation reactions.[2],[3],[13] The protonation constants of L2 as well as the stability and the protonation constants of GdL2 and those of the most important endogenous divalent metal complexes (Ca^II-, Zn^II-, and Cu^II) were determined by pH potentiometry (Table 1 and Table S1). In the case of GdL1, we were interested in determining the dissociation constant of the hydroxyl group that was measured also by pH potentiometry (Table 1). […]\n(§2) The stability and protonation constants of Ca^2+, Zn^2+, and Cu^2+ complexes formed with the […] ligand were determined by pH potentiometric titration. […] The protonation constants of the GdL1 and GdL2 complexes were determined using pH potentiometry by titrating the preprepared complexes from pH = 3.0 to pH = 12 for GdL2 and from pH = 4.0 to pH = 12 for GdL1 with 0.2 M NaOH. The stability constants of GdL2 were determined by the “out-of-cell” technique because of the slow formation reaction. The pH range of the complexation equilibria and the time needed to reach the equilibria were determined by relaxometry for the formation of GdL2. […]"}, "[2]": {"assay": "Stability and protonation constants of Ca^II complexes by pH potentiometry", "text": "as §1, §2"}, "[3]": {"assay": "Conditional stability constant pGd", "conditions": "pGd = −log[Gd]free, [Gd^3+] = 1 μM, [L] = 10 μM, pH = 7.4; calculated from the constants"}},
  "note": "Marks after values point to notes of the source that are not given here.",
  "data": [
    {"smiles": "O=C(O)CN1CCN(CC(=O)O)CCN(C[C@@H](O)C(=O)O)CCN(CC(=O)O)CC1", "note": "[L2, (R)2,2′,2″-(10-(2-Carboxy-2-hydroxyethyl)-1,4,7,10-tetraazacyclododecane-1,4,7-triyl) Triacetic Acid]", "values": [
      {"measurement": "Gd(L)H–1 (log KGd(L)H-1, protonation constant of the alkoxide)", "setting": "[1]", "value": "9.58 (3)"},
      {"measurement": "Gd(HL) (log K, protonation constant of the Gd complex)", "setting": "[1]; carboxylate of the 2-hydroxypropanoic arm", "value": "3.36 (3)"},
      {"measurement": "CaHL (log K, protonation constant of the complex)", "setting": "[2]; 0.15 M NaCl, 25 °C", "value": "5.20 (5)"},
      {"measurement": "CaL (log K, stability constant)", "setting": "[2]; I = 0.15 M NaCl, 298 K", "value": "11.63 (1)"},
      {"measurement": "pGd", "setting": "[3]", "value": "16.87 ^h"}
    ]}
  ]
}
